Source: US20200031778A1, “NOVEL 5-SUBSTITUTED IMIDAZOLYLMETHYL DERIVATIVES” (Bayer CropScience Aktiengesellschaft, priority 2016, published 2020)

Assay: Log P by HPLC on reversed phase columns (EEC directive 79/831 Annex V.A8; methods [a], [b], [c])
Assay type: physicochemical
Details: not given
In short: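 Log P derived from retention times, interpolated linearly between bracketing straight-chain alkan-2-ones (3–16 carbons) of known Log P. Eluents ran acetonitrile 10% to 95% against water with 0.1% formic acid ([a], acidic), 0.001 M ammonium acetate ([b], neutral) or 0.1% phosphoric acid ([c], acidic); UV read-out.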

Row | Compound | LogP
1 | N#Cc1cncn1CC(O)c1ccc(Oc2ccc(Br)cc2)cc1C(F)(F)F (stereo not shown) [I-36] | 3.46^[a]
2 | N#Cc1cncn1CC(O)(C#CC1(c2ccccc2)CC1)C1(Cl)CC1 (stereo not shown) [I-606] | 2.90^[a]
3 | CC(O)(Cn1cncc1Br)c1ccc(Oc2ccc(Br)cc2)cc1C(F)(F)F (stereo not shown) [I-192] | 3.03^[a]
4 | N#Cc1ccc(Oc2ccc(C(O)Cn3cncc3Cl)c(Cl)c2)cc1 (stereo not shown) [I-06] | 2.03^[a]
5 | CCCC(O)(Cn1cncc1C#N)c1ccc(F)cc1C(F)(F)F (stereo not shown) [I-459] | 2.71^[a]
6 | N#Cc1cncn1CC(O)(CC1CC1)c1cccc(F)c1F (stereo not shown) [I-517] | 2.20^[a]
7 | CCCCC(O)(Cn1cncc1C#N)c1ccc(C(F)(F)F)cc1Cl (stereo not shown) [I-266] | 3.65^[a]
8 | N#Cc1cncn1CC(O)(c1cc(F)cc(Cl)c1F)C1(Cl)CC1 (stereo not shown) [I-610] | 2.49^[a]
9 | N#Cc1cncn1CC(O)(c1ccc(Cl)nc1F)C1(Cl)CC1 (stereo not shown) [I-554] | 2.15^[a]
10 | CC(C)(C)CC(O)(Cn1cncc1C#N)c1ccc(C(F)(F)F)cc1 (stereo not shown) [I-272] | 3.35^[a]
11 | CCCCC(O)(Cn1cncc1C#N)c1ccc(Cl)cc1F (stereo not shown) [I-263] | 3.19^[a]
12 | CC(O)(Cn1cncc1Br)c1ccc(Oc2ccc(Br)cc2)cc1Br (stereo not shown) [I-184] | 3.06^[a]
13 | N#Cc1cncn1CC(O)(CCc1ccc(OC(F)(F)F)c(F)c1)C1(Cl)CC1 (stereo not shown) [I-359] | 3.31^[a]
14 | N#Cc1cncn1CC(O)c1ccc(Oc2ccccc2)cc1Cl (stereo not shown) [I-76] | 2.70^[a]
15 | N#Cc1cncn1CC(=O)c1cnc(Oc2ccc(S(F)(F)(F)(F)F)cc2)cc1C(F)(F)F [IX-81] | 3.67^[a]
16 | N#Cc1cncn1CC(O)(CCCC1CCCCC1)CC1CC1 (stereo not shown) [I-666] | 3.91^[a]
17 | N#Cc1cncn1CC(O)(CC1CC1)c1cc(Cl)c(Cl)c(Cl)c1 (stereo not shown) [I-529] | 3.22^[a]
18 | CC(C)(C)CC(O)(Cn1cncc1C#N)c1ccc(F)cc1F (stereo not shown) [I-238] | 3.06^[a]
19 | N#Cc1cncn1CC(O)(CC1CC1)c1ccc(F)cc1Br (stereo not shown) [I-443] | 2.78^[a]
20 | CC(O)(Cn1cncc1C#N)c1ccc(Oc2ccc(C(F)(F)F)nc2)nc1C(F)(F)F (stereo not shown) [I-294] | 2.76^[a]
21 | CC(O)(Cn1cncc1Br)c1ccc(Oc2ccc(I)cc2)cc1Cl (stereo not shown) [I-172] | 3.17^[a]
22 | CC(C)(C)C(O)(Cn1cncc1C#N)c1ccc(F)c(F)c1 (stereo not shown) [I-483] | 2.66^[a]
23 | CCCCC(O)(Cn1cncc1C#N)c1ccc(OC(F)(F)F)cc1 (stereo not shown) [I-265] | 3.25^[a]

Row | Compound | LogP
24 | C[Si](C)(C)CC(O)(Cn1cncc1C#N)c1ccc(C(F)(F)F)cc1 (stereo not shown) [I-269] | 3.55^[a]
25 | OC(Cn1cncc1F)c1ccc(Oc2ccc(Br)cc2)nc1C(F)(F)F (stereo not shown) [I-103] | 2.28^[a]
26 | N#Cc1cncn1CC(O)c1ccc(F)cc1 (stereo not shown) [I-117] | 1.37^[a]
27 | COC(Cn1cncc1C#N)c1ccc(Oc2ccc(Cl)cc2)cc1C(F)F (stereo not shown) [I-74] | 3.76^[a]
28 | N#Cc1cncn1CC(O)(c1cc(Cl)c(F)cc1F)C1(F)CC1 (stereo not shown) [I-577] | 2.42^[a]
29 | Cc1ccc(Oc2ccc(C(C)(O)Cn3cncc3Cl)c(Cl)c2)cc1 (stereo not shown) [I-156] | 3.13^[a]
30 | N#Cc1cncn1CC(O)(c1ccc(Cl)cc1)C1(Cl)CC1 (stereo not shown) [I-232] | 2.49^[a]
31 | N#Cc1cncn1CC(O)c1cnc(Oc2ccc(Cl)cc2F)cc1C(F)(F)F (stereo not shown) [I-114] | 3.13^[a]
32 | CC(O)(Cn1cncc1Cl)c1ccc(Oc2ccc(Br)cc2)cc1Br (stereo not shown) [I-185] | 3.06^[a]
33 | CC(O)(Cn1cncc1Br)c1ccc(Oc2ccc(Cl)cc2)cc1C(F)(F)F (stereo not shown) [I-193] | 2.76^[a]
34 | N#Cc1cncn1CC(O)(C#Cc1ccccc1Cl)C1(Cl)CC1 (stereo not shown) [I-324] | 2.73^[a]
35 | N#Cc1cncn1CC(O)(c1cc(Cl)ccc1F)C1(F)CC1 (stereo not shown) [I-522] | 2.25^[a]
36 | N#Cc1cncn1CC(O)c1ccc(Oc2ccc(Cl)cc2)cc1Cl (stereo not shown) [I-22] | 3.19^[a]
37 | CCCC(C)C#CC(O)(Cn1cncc1C#N)C1(Cl)CC1 (stereo not shown) [I-658] | 2.82^[a]
38 | COc1ccc(C#CC(O)(Cn2cncc2C#N)C2(Cl)CC2)cc1 (stereo not shown) [I-321] | 2.51^[a]
39 | COC(Cn1cncc1C#N)c1ccc(Oc2ccc(Cl)cc2)cc1F (stereo not shown) [I-60] | 3.65^[a]
40 | N#Cc1cncn1CC(O)(c1ccc(F)c(Cl)c1F)C1(F)CC1 (stereo not shown) [I-635] | 2.35^[a]
41 | N#Cc1cncn1CC(O)(c1cc(Cl)c(F)cc1Br)C1(F)CC1 (stereo not shown) [I-687] | 2.61^[a]
42 | C[Si](C)(CCC(O)(Cn1cncc1C#N)C1(F)CC1)c1ccccc1 (stereo not shown) [I-668] | 3.30^[a]
43 | N#Cc1cncn1CC(O)c1ccc(Oc2ccc(Br)cc2)nc1C(F)(F)F (stereo not shown) [I-128] | 3.09^[a]
44 | CC(O)(Cn1cncc1C#N)c1ccc(Oc2ccc(Cl)cc2)cc1Cl (stereo not shown) [I-182] | 3.51^[a]
45 | C=C(C)CC(O)(Cn1cncc1C#N)C1(Cl)CC1 (stereo not shown) [I-675] | 2.35^[a]
46 | N#Cc1cncn1CC(O)(C=CCC(Cl)CCl)C1(F)CC1 (stereo not shown) [I-680] | 2.44^[a]

Row | Compound | LogP
47 | CC(C)C(O)(Cn1cncc1C#N)c1ccc(Br)cc1Cl (stereo not shown) [I-422] | 3.02^[a]
48 | CC(O)(Cn1cncc1F)c1cnc(Oc2ccc(C(F)F)cc2)cc1C(F)(F)F (stereo not shown) [I-230] | 2.17^[a]
49 | N#Cc1cncn1CC(O)(c1cc(F)c(Cl)cc1F)C1(Cl)CC1 (stereo not shown) [I-583] | 2.66^[a]
50 | OC(Cn1cncc1C(F)(F)F)c1ccc(Oc2ccc(Cl)cc2)cc1F (stereo not shown) [I-90] | 3.4^8[a]
51 | CC(O)(Cn1cncc1Cl)c1cnc(Oc2ccc(Cl)cc2)cc1C(F)(F)F (stereo not shown) [I-175] | 2.62^[a]
52 | N#Cc1cncn1CC(O)c1ccc(Oc2ccc(Cl)cc2)cc1F (stereo not shown) [I-54] | 2.94^[a]
53 | CC(O)(Cn1cncc1Cl)c1ccc(Oc2ccc(Cl)cn2)cc1Cl (stereo not shown) [I-181] | 2.28^[a]
54 | CC(O)(Cn1cncc1F)c1cnc(Oc2ccc(Cl)cc2F)cc1C(F)(F)F (stereo not shown) [I-229] | 2.43^[a]
55 | N#Cc1cncn1CC(O)(c1c(F)ccc(Cl)c1F)C1(Cl)CC1 (stereo not shown) [I-622] | 2.47^[a]
56 | CC(O)(Cn1cncc1Br)c1ccc(Oc2ccc(Cl)cc2)cc1Cl (stereo not shown) [I-198] | 2.75^[a]
57 | N#Cc1cncn1CC(O)(c1ccc(Br)cc1Cl)C1(F)CC1 (stereo not shown) [I-376] | 2.76^[a]
58 | OC(Cn1cncc1Cl)c1ccc(Oc2ccc(I)cc2)cc1Cl (stereo not shown) [I-08] | 2.94^[a]
59 | N#Cc1cncn1CC(O)(c1ccc(Cl)cc1F)C1CC1 (stereo not shown) [I-413] | 2.50^[a]
60 | N#Cc1cncn1CC(O)(c1ccc(Cl)cc1)C1(F)CC1 (stereo not shown) [I-231] | 2.27^[a]
61 | CCCC(O)(Cn1cncc1C#N)c1ccc(Br)cc1Cl (stereo not shown) [I-423] | 3.19^[a]
62 | CC(O)(Cn1cncc1F)c1ccc(Oc2ccc(Cl)cc2)nc1F (stereo not shown) [I-214] | 1.98^[a]
63 | CCOC(Cn1cncc1C#N)c1ccc(Oc2ccc(Cl)cc2)cc1C(F)(F)F (stereo not shown) [I-84] | 4.54^[a]
64 | N#Cc1cncn1CC(O)(c1cc(Cl)c(F)cc1F)C1(Cl)CC1 (stereo not shown) [I-586] | 2.61^[a]
65 | N#Cc1cncn1CC(O)c1cnc(Oc2ccc(C(F)(F)F)cc2)cc1Cl (stereo not shown) [I-127] | 2.96^[a]
66 | CCCC(C)CCC(O)(Cn1cncc1C#N)C1(Cl)CC1 (stereo not shown) [I-677] | 3.69^[a]
67 | O=C(Cn1cncc1F)c1ccc(Oc2ccc(C(F)(F)F)nc2)nc1C(F)(F)F [IX-130] | 2.16^[a]
68 | N#Cc1cncn1CC(O)(CC1CC1)c1c(F)cc(Cl)cc1F (stereo not shown) [I-512] | 2.67^[a]
69 | CC(C)(C)CC(O)(Cn1cncc1C#N)c1ccc(Br)cc1Cl (stereo not shown) [I-334] | 2.83^[a]

Row | Compound | LogP
70 | N#Cc1cncn1CC(O)(c1ccc(F)cc1F)C1CC1 (stereo not shown) [I-410] | 2.18^[a]
71 | N#Cc1cncn1CC(O)(c1cc(Cl)c(F)cc1Cl)C1(Cl)CC1 (stereo not shown) [I-581] | 2.70^[a]
72 | CC(O)(Cn1cncc1F)c1ccc(Oc2ccc(Cl)cc2)cc1C(F)(F)F (stereo not shown) [I-211] | 2.64^[a]
73 | CC(O)(Cn1cncc1Cl)c1ccc(Oc2ccc(Cl)nc2)cc1Cl (stereo not shown) [I-176] | 2.13^[a]
74 | OC(Cn1cncc1Cl)c1ccc(Oc2ccc(Cl)cc2)nc1C(F)(F)F (stereo not shown) [I-34] | 2.51^[a]
75 | N#Cc1cncn1CC(O)(c1cc(F)cc(F)c1Cl)C1(Cl)CC1 (stereo not shown) [I-619] | 2.33^[a]
76 | CC(C)(C)c1ccc(C#CC(O)(Cn2cncc2C#N)C2(Cl)CC2)cc1 (stereo not shown) [I-317] | 3.73^[a]
77 | N#Cc1cncn1CC(O)(c1ccc(C2CC2)cc1Cl)C1(F)CC1 (stereo not shown) [I-392] | 2.74^[a]
78 | OC(Cn1cncc1Br)c1ccc(Oc2ccc(C(F)(F)F)cc2)cc1C(F)(F)F (stereo not shown) [I-38] | 2.96^[a]
79 | N#Cc1cncn1CC(O)(c1ccc(F)c(F)c1Cl)C1(F)CC1 (stereo not shown) [I-636] | 2.25^[a]
80 | N#Cc1cncn1CC(O)(CC1CC1)c1ccc(F)c(F)c1 (stereo not shown) [I-489] | 2.30^[a]
81 | OC(Cn1cncc1Cl)c1ccc(Oc2ccc(I)cc2)cc1Br (stereo not shown) [I-101] | 2.80^[a]
82 | N#Cc1cncn1CC(O)(c1ccc(F)c(Br)c1F)C1(F)CC1 (stereo not shown) [I-625] | 2.35^[a]
83 | CC(O)(Cn1cncc1Cl)c1ccc(Oc2ccc(Cl)cc2)cc1 (stereo not shown) [I-164] | 2.32^[a]
84 | CC(C)(C)C(O)(Cn1cncc1C#N)c1ccc(F)cc1F (stereo not shown) [I-385] | 2.71^[a]
85 | COC(C)(Cn1cncc1C#N)c1ccc(Oc2ccc(Br)cc2)cc1C(F)(F)F (stereo not shown) [I-296] | 4.51^[a]
86 | CC(C)(C)CC(O)(Cn1cncc1C#N)c1ccccc1Br (stereo not shown) [I-308] | 3.27^[a]
87 | Cc1ccc(C#CC(O)(Cn2cncc2C#N)C2(F)CC2)cc1 (stereo not shown) [I-373] | 2.52^[a]
88 | N#Cc1cncn1CC(O)(C#CC1CCc2ccccc21)C1(Cl)CC1 (stereo not shown) [I-602] | 2.92^[a]
89 | CC(=O)c1cncn1CC(C)(O)c1cnc(Oc2ccc(C(F)(F)F)cc2)cc1Br (stereo not shown) [I-252] | 2.84^[a]
90 | N#Cc1cncn1CC(O)(c1c(F)cccc1Cl)C1(Cl)CC1 (stereo not shown) [I-339] | 2.32^[a]
91 | N#Cc1cncn1CC(O)(c1cc(Cl)ccc1Cl)C1(F)CC1 (stereo not shown) [I-623] | 2.39^[a]
92 | N#Cc1cncn1CC(O)(c1cc(Br)ccc1F)C1(Cl)CC1 (stereo not shown) [I-632] | 2.49^[a]

Same assay, conditions: reversed phase HPLC column; method [a]: LC-UV, acidic range, 0.1% formic acid in water and acetonitrile as eluent (linear gradient from 10% to 95% acetonitrile)

Row | Compound | chromatographic logP
93 | N#Cc1cncn1CC(=O)c1cnc(Oc2ccc(C(F)(F)F)nc2)cc1C(F)(F)F [IX-105] | 2.82
94 | COc1ccc(Oc2ccc(C(=O)Cn3cncc3Cl)c(Cl)n2)c(Cl)c1 [IX-24] | 2.64
